Values after ≈ are worked out from the molar mass of the structure shown.
Legend:
Format in all cases: cell-based
Saccharomyces cerevisiae [1] = assay: MIC/MFC broth microdilution (CLSI); details: Saccharomyces cerevisiae S288c
Method: (§1) Antifungal susceptibility was determined by broth microdilution according to the CLSI guidelines described in M27-Ed4 ([16]). […] MFC was determined by back-plating drug-treated cultures from MIC broths onto SDA plates. The MFC was defined as the lowest concentration from which no colonies could be cultured.

Candida albicans [2] = assay: MIC/MFC broth microdilution (CLSI); details: Candida albicans SC5314
Method: as §1

[3] = tested on: Cryptococcus deuterogattii; assay: checkerboard drug interaction (FICI, MICc);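 as to all read-outs here: simplified diagonal checkerboard screen pairing antifungal drugs with FPPS inhibitors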; details: C. deuterogattii; for INH FD (MIC-MICc fold decrease): fold decrease of inhibitor MIC
Method: (§2) Drug interactions between antifungals and FPPS inhibitors were investigated using a simplified checkerboard diagonal screening method ([45]). […] FICIs were determined according to the Loewe additivity model ([17]).

Cryptococcus neoformans = assay: checkerboard drug interaction (FICI, MICc);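 as to all read-outs here: antifungal plus FPPS inhibitor pairs tested against Cryptococcus neoformans by simplified diagonal checkerboard screening, FICI computed under the Loewe additivity model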; details: C. neoformans; for INH FD (MIC-MICc fold decrease): fold decrease of inhibitor MIC
Method: as §2

Saccharomyces cerevisiae [4] = assay: checkerboard drug interaction (FICI, MICc);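 as to all read-outs here: simplified diagonal checkerboard screen pairing antifungals with FPPS inhibitors, FICI calculated under the Loewe additivity model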; parameters: INH MICc / INH MICc (ITR:INH) / INH MICc (KET:INH) / INH MICc (FLC:INH): unit not given beside the values; details: S. cerevisiae; for INH FD (MIC-MICc fold decrease): fold decrease of inhibitor MIC
Candida glabrata = assay: checkerboard drug interaction (FICI, MICc);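 as to all read-outs here: simplified diagonal checkerboard screen pairing antifungals with FPPS inhibitors, FICI calculated under the Loewe additivity model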; details: C. glabrata; for INH FD (MIC-MICc fold decrease): fold decrease of inhibitor MIC
Method: as §2

Candida albicans [5] = assay: checkerboard drug interaction (FICI, MICc);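 also: antifungal plus FPPS inhibitor combinations on Candida albicans tested by a simplified diagonal checkerboard screen, with FICI calculated under the Loewe additivity model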; details: C. albicans
Method: as §2

[6] = FLC:INH combination, MIC of the inhibitor in combination with FLC
[7] = FLC:INH combination, fold decrease of FLC MIC
[8] = ITR:INH combination, MIC of the inhibitor in combination with ITR
[9] = ITR:INH combination, fold decrease of ITR MIC
[10] = KET:INH combination, MIC of the inhibitor in combination with KET
[11] = KET:INH combination, fold decrease of KET MIC

Which results are given for `CCCCCCCCCN1CCC[C@H]1C(=O)N[C@@H](CC(=O)OC)C(=O)OC` [dmPLA9]?
MFC (Saccharomyces cerevisiae [1]): 32 µg/mL (≈ 83.2 µM); MIC (Saccharomyces cerevisiae [1]): 32 µg/mL (≈ 83.2 µM); MFC (Candida albicans [2]): > 128 µg/mL; MIC (Candida albicans [2]): > 128 µg/mL; FICI ([3]; FLC:INH combination): 3; INH MICc [3, 6]: 128; FLC FD (MIC-MICc fold decrease) [3, 7]: -2; INH FD (MIC-MICc fold decrease) ([3]; FLC:INH combination): 1; FICI ([3]; ITR:INH combination): ≥4; INH MICc [3, 8]: 256; ITR FD (MIC-MICc fold decrease) [3, 9]: -4; INH FD (MIC-MICc fold decrease) ([3]; ITR:INH combination): -2; FICI ([3]; KET:INH combination): 1.5; INH MICc [3, 10]: 128; KET FD (MIC-MICc fold decrease) [3, 11]: 2; INH FD (MIC-MICc fold decrease) ([3]; KET:INH combination): 1; FICI (Cryptococcus neoformans; FLC:INH combination): ≥4; INH MICc (Cryptococcus neoformans; [6]): 128; FLC FD (MIC-MICc fold decrease) (Cryptococcus neoformans; [7]): -4; INH FD (MIC-MICc fold decrease) (Cryptococcus neoformans; FLC:INH combination): -2; FICI (Cryptococcus neoformans; ITR:INH combination): ≥4; INH MICc (Cryptococcus neoformans; [8]): 128; ITR FD (MIC-MICc fold decrease) (Cryptococcus neoformans; [9]): -4; INH FD (MIC-MICc fold decrease) (Cryptococcus neoformans; ITR:INH combination): -2; FICI (Cryptococcus neoformans; KET:INH combination): 3; INH MICc (Cryptococcus neoformans; [10]): 64; KET FD (MIC-MICc fold decrease) (Cryptococcus neoformans; [11]): -2; INH FD (MIC-MICc fold decrease) (Cryptococcus neoformans; KET:INH combination): 1; FICI (Saccharomyces cerevisiae [4]; FLC:INH combination): 2.5; FLC MICc (Saccharomyces cerevisiae [4]; FLC:INH combination, MIC of FLC in combination with the inhibitor): 8; INH MICc (Saccharomyces cerevisiae [4]; [6]): 16; FLC FD (MIC-MICc fold decrease) (Saccharomyces cerevisiae [4]; [7]): -2; INH FD (MIC-MICc fold decrease) (Saccharomyces cerevisiae [4]; FLC:INH combination): 2; FICI (Saccharomyces cerevisiae [4]; ITR:INH combination): 3; ITR MICc (Saccharomyces cerevisiae [4]; ITR:INH combination, MIC of ITR in combination with the inhibitor): 0.5; INH MICc (Saccharomyces cerevisiae [4]; [8]): 32; ITR FD (MIC-MICc fold decrease) (Saccharomyces cerevisiae [4]; [9]): -2; INH FD (MIC-MICc fold decrease) (Saccharomyces cerevisiae [4]; ITR:INH combination): 1; FICI (Saccharomyces cerevisiae [4]; KET:INH combination): 1.06; KET MICc (Saccharomyces cerevisiae [4]; KET:INH combination, MIC of KET in combination with the inhibitor): 2; INH MICc (Saccharomyces cerevisiae [4]; [10]): 2; KET FD (MIC-MICc fold decrease) (Saccharomyces cerevisiae [4]; [11]): 1; INH FD (MIC-MICc fold decrease) (Saccharomyces cerevisiae [4]; KET:INH combination): 16; FICI (Candida glabrata; FLC:INH combination): ≥4; INH MICc (Candida glabrata; [6]): 64; FLC FD (MIC-MICc fold decrease) (Candida glabrata; [7]): -4; INH FD (MIC-MICc fold decrease) (Candida glabrata; FLC:INH combination): 4; FICI (Candida glabrata; ITR:INH combination): 1.5; INH MICc (Candida glabrata; [8]): 8; ITR FD (MIC-MICc fold decrease) (Candida glabrata; [9]): 1; INH FD (MIC-MICc fold decrease) (Candida glabrata; ITR:INH combination): 32; FICI (Candida glabrata; KET:INH combination): 1.5; INH MICc (Candida glabrata; [10]): 8; KET FD (MIC-MICc fold decrease) (Candida glabrata; [11]): 1; INH FD (MIC-MICc fold decrease) (Candida glabrata; KET:INH combination): 32; FICI (Candida albicans [5]; FLC:INH combination): 2.13; INH MICc (Candida albicans [5]; [6]): 16; FLC FD (MIC-MICc fold decrease) (Candida albicans [5]; [7]): -2; INH FD (MIC-MICc fold decrease) (Candida albicans [5]; FLC:INH combination, fold decrease of inhibitor MIC): 8; FICI (Candida albicans [5]; ITR:INH combination): 2.13; INH MICc (Candida albicans [5]; [8]): 16; ITR FD (MIC-MICc fold decrease) (Candida albicans [5]; [9]): -2

Source: paper PMC12892976, “Alkylation-based optimization of antifungal FPPS inhibitors yields a potent, broad-spectrum lipophilic zoledronate derivative” (mBio, 2025)
